Test: xn = mol fraction of the nth substance listed
Conditions: 101 kPa, Liquid; for viscosity: Capillary tube (Ostwald / Ubbelohde) method

NCCNCCO [N-(2-aminoethyl)ethanolamine] + O
Conditions | mass density [kg/m3] | viscosity [mPa·s]
298.15 K, x1 = 0.05 | 1015.65 | 2.45
298.15 K, x1 = 0.07 | 1022.28 | 3.87
298.15 K, x1 = 0.0999 | 1030.85 | 6.76
298.15 K, x1 = 0.1992 | 1047.37 | 30
298.15 K, x1 = 0.3 | 1050.66 | 70.9
298.15 K, x1 = 0.3997 | 1048.18 | 104
298.15 K, x1 = 0.4991 | 1044.05 | 121
298.15 K, x1 = 0.599 | 1039.62 | 124
298.15 K, x1 = 0.6991 | 1035.48 | 121
298.15 K, x1 = 0.7997 | 1031.83 | 116
298.15 K, x1 = 0.9002 | 1028.28 | 109
298.15 K, x1 = 1 | 1025.28 | 98.6
303.15 K, x1 = 0.05 | 1013.65 | 2.16
303.15 K, x1 = 0.07 | 1020.01 | 3.24
303.15 K, x1 = 0.0999 | 1028.24 | 5.5
303.15 K, x1 = 0.1992 | 1044.02 | 22.6
303.15 K, x1 = 0.3 | 1047.05 | 50.4
303.15 K, x1 = 0.3997 | 1044.5 | 72.8
303.15 K, x1 = 0.4991 | 1040.33 | 83.9
303.15 K, x1 = 0.599 | 1035.89 | 87
303.15 K, x1 = 0.6991 | 1031.74 | 84.8
303.15 K, x1 = 0.7997 | 1028.11 | 82.5
303.15 K, x1 = 0.9002 | 1024.57 | 78.1
303.15 K, x1 = 1 | 1021.53 | 70.5
313.15 K, x1 = 0.05 | 1009.22 | 1.63
313.15 K, x1 = 0.07 | 1015.13 | 2.29
313.15 K, x1 = 0.0999 | 1022.7 | 3.83
313.15 K, x1 = 0.1992 | 1037.13 | 13.5
313.15 K, x1 = 0.3 | 1039.7 | 27.8
313.15 K, x1 = 0.3997 | 1037.01 | 38.9
313.15 K, x1 = 0.4991 | 1032.79 | 44.8
313.15 K, x1 = 0.599 | 1028.36 | 46.5
313.15 K, x1 = 0.6991 | 1024.21 | 45.7
313.15 K, x1 = 0.7997 | 1020.57 | 44.8
313.15 K, x1 = 0.9002 | 1017.06 | 44.4
313.15 K, x1 = 1 | 1014.02 | 39.4
323.15 K, x1 = 0.05 | 1004.24 | 1.26
323.15 K, x1 = 0.07 | 1009.76 | 1.75
323.15 K, x1 = 0.0999 | 1016.8 | 2.8
323.15 K, x1 = 0.1992 | 1030.03 | 8.7
323.15 K, x1 = 0.3 | 1032.15 | 16.5
323.15 K, x1 = 0.3997 | 1029.37 | 22.5
323.15 K, x1 = 0.4991 | 1025.13 | 25.6
323.15 K, x1 = 0.599 | 1020.71 | 26.7
323.15 K, x1 = 0.6991 | 1016.59 | 26.4
323.15 K, x1 = 0.7997 | 1012.96 | 26
323.15 K, x1 = 0.9002 | 1009.48 | 26
323.15 K, x1 = 1 | 1006.44 | 23.4
333.15 K, x1 = 0.05 | 998.75 | 1.01
333.15 K, x1 = 0.07 | 1003.89 | 1.38
333.15 K, x1 = 0.0999 | 1010.53 | 2.05
333.15 K, x1 = 0.1992 | 1022.69 | 5.9
333.15 K, x1 = 0.3 | 1024.44 | 10.5
333.15 K, x1 = 0.3997 | 1021.57 | 13.8
333.15 K, x1 = 0.4991 | 1017.35 | 15.8
333.15 K, x1 = 0.599 | 1012.96 | 16.5
333.15 K, x1 = 0.6991 | 1008.88 | 16.5
333.15 K, x1 = 0.7997 | 1005.3 | 16.4
333.15 K, x1 = 0.9002 | 1001.84 | 16.5
333.15 K, x1 = 1 | 998.83 | 14.8
343.15 K, x1 = 0.05 | 992.77 | 0.839
343.15 K, x1 = 0.07 | 997.34 | 1.11
343.15 K, x1 = 0.0999 | 1003.89 | 1.6
343.15 K, x1 = 0.1992 | 1015.09 | 4.2
343.15 K, x1 = 0.3 | 1016.53 | 7
343.15 K, x1 = 0.3997 | 1013.6 | 9.1
343.15 K, x1 = 0.4991 | 1009.42 | 10.3
343.15 K, x1 = 0.599 | 1005.1 | 10.8
343.15 K, x1 = 0.6991 | 1001.06 | 10.8
343.15 K, x1 = 0.7997 | 997.54 | 10.8
343.15 K, x1 = 0.9002 | 994.11 | 10.7
343.15 K, x1 = 1 | 991.15 | 10.1
